For 26 compounds, EC50 results are on record in patent publication US20250129104A1, “7H-PYRROLO[2,3-D]PYRIMIDINES AND PREPARATION AND USES THEREOF” (BioSplice Therapeutics, Inc., priority 2021, published 2025).

For test [1], the system named is Tau phosphorylation at Thr212 (pThr212). Description: tau phosphorylation assay: phosphoTau (Thr212) AlphaLISA in HEK293T cells transfected with DYRK1A and MAPT. The test is classed as cell-based. To be noted: HEK-293T; HEK293T cells transfected with human DYRK1A and MAPT; 18-24 h compound treatment; read-out: pTau (Thr212) EC50. As to the method:
Representative compounds were screened using the assay procedure for tau phosphorylation activity described below.
HEK293T cells (ATCC, CRL3216) cultured in DMEM (Thermo Fisher Scientific, 10566024) supplemented with 10% FBS (Corning, 35-011-CV) and Penicillin/Streptomycin (Thermo Fisher Scientific, 15140163) were seeded in a 75 cm^2 flask at 8.1×10^6 cells/flask. The HEK293T cells were then transiently transfected with 5 μg DYRK1A (NM_001396) human untagged clone (OriGene, SC314641) and 2.5 μg MAPT (441 a.a. Tau gene) (NM_005910) human untagged clone (OriGene, TP313312) using Lipofectamine 3000 (Thermo Fisher Scientific, L30000015) and incubated for 20-30 hours in a humidified incubator at 37° C. and 5% CO2. Post-incubation, HEK293T cells transfected with the DYRK1A and MAPT expression vectors were harvested and seeded in BioCoat poly-D lysine coated 96-well plates (Corning, 354461) at 3×10^4 cells/well.
The above synthesized compounds were screened using the cell assay procedure to assess decreased Tau phosphorylation at Thr212 (pThr212) described below.
Each compound was dissolved in DMSO (Sigma-Aldrich, D8418-100 mL) as a 10 mM stock. 10 mM stocks were serially diluted 1:3, 10-point dose-response curve and added to the cells with a final concentration ranging from 20 μM to 1.1 nM. Cell were treated with compounds in duplicate and incubated for 18-24 hours in a humidified incubator at 37° C. and 5% CO2.
Following the overnight compound treatment, cells were lysed with 1× Alpha Surefire Ultra Lysis Buffer (Perkin Elmer, ALSU-LB-100ML) complemented with 1× Halt Phosphatase Inhibitor Cocktail (Thermo Fisher Scientific, 78427) and 1× Halt Protease Inhibitor Cocktail (Thermo Fisher Scientific, 78438). Lysates were spun down at 12,000 g for 10 min to remove any cellular debris and 5 μL of lysates were dispensed into a 384-well Opti-Plate (Perkin Elmer, 6007290) for the measurement of Tau phosphorylation in the phosphoTau (Thr212) AlphaLISA assay. Donor antibody, biotinylated HT7Tau (Thermo Fisher Scientific, MN1000B), and acceptor antibody, pThr212Tau (Thermo Fisher Scientific, 44740G) were both added to the cell lysates at a final concentration of 3 nM and incubated for 1 hour at room temperature. Following incubation of the lysates with the donor and acceptor antibodies, anti-rabbit IgG (Fc specific) AlphaLISA acceptor beads (Perkin Elmer, AL104C) were added at a 10 μg/mL final concentration and incubated for 1 hour at room temperature protected from light. Lastly, AlphaScreen streptavidin donor beads (PerkinElmer, 6760002) were added at 40 μg/mL final concentration and incubated for 1 hour at room temperature protected from light. Plates were read at […], and Em=615 nm on the EnVision Multilabel Plate Reader (Perkin Elmer). PhosphoTau (Thr212) AlphaLISA signal was used to plot, draw the curve fitting, and determine each compound's EC50 in Prism (GraphPad).

The target of test [2] is recombinant DYRK1A kinase (Homo sapiens (Human), UniProt Q13627). Description: DYRK1A kinase assay (Ser/Thr 18 peptide Z-lyte FRET assay). Type of test: biochemical. To be noted: DYRK1A kinase activity; 15 μM ATP, 1 h room temperature; method text calls the value IC50. The method in brief: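 Recombinant human DYRK1A (0.25 μg/mL) with 15 μM ATP and 4 μM Ser/Thr 18 peptide, 1 h at room temperature with compound (11-point, 1:3, 10 μM top, duplicate). Z-lyte development 1 h, then coumarin/fluorescein FRET emission ratio converted to % phosphorylation; IC50 by non-linear regression.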

One may read the EC50 as the midpoint of the concentration-response curve.

In the case of `Cc1nc2ccc(-c3c[nH]c4nc(NCC(C)(C)F)ncc34)cc2s1` [Compound 24, N-(2-Fluoro-2-methylpropyl)-5-(2-methylbenzo[d]thiazol-6-yl)-7H-pyrrolo [2,3-d]pyrimidin-2-amine], the EC50 in test [1] is 360 nM; in test [2] it was 14.5 nM. In the case of `CN1CCC(Nc2ncc3c(-c4cc5cnccc5s4)c[nH]c3n2)CC1` [Compound 87, N-(1-Methylpiperidin-4-yl)-5-(thieno[3,2-c]pyridin-2-yl)-7H-pyrrolo[2,3-d]pyrimidin-2-amine], the EC50 was determined as 107 nM in test [1] and 6.8 nM in test [2]. With `c1cn2cc(-c3c[nH]c4nc(C5CCC5)ncc34)ccc2n1` [Compound 103, 2-cyclobutyl-5-(imidazo[1,2-a]pyridin-6-yl)-7H-pyrrolo[2,3-d]pyrimidine], the EC50 in test [1] came out at 4500 nM; in test [2], 21.9 nM.

In the case of `CC(C)(C)CNc1ncc2c(-c3ccc4nccn4c3)c[nH]c2n1` [Compound 110, 5-(Imidazo[1,2-a]pyridin-6-yl)-N-neopentyl-7H-pyrrolo[2,3-d]pyrimidin-2-amine], the figures for the 50% effective concentration (EC50) in test [1] and in test [2] were 22 nM and 36 nM, respectively. `CC(C)(F)CNc1ncc2c(-c3ccc4nccn4c3)c[nH]c2n1` [Compound 112, N-(2-Fluoro-2-methylpropyl)-5-(imidazo[1,2-a]pyridin-6-yl)-7H-pyrrolo[2,3-d]pyrimidin-2-amine]: the EC50 in test [1] was determined as 113 nM; in test [2], 2.8 nM. Turning to `C[C@@H](Nc1ncc2c(-c3ccc4nccn4c3)c[nH]c2n1)C(F)(F)F` [Compound 115, (R)-5-(Imidazo[1,2-a]pyridin-6-yl)-N-(1,1,1-trifluoropropan-2-yl)-7H-pyrrolo [2,3-d]pyrimidin-2-amine], the EC50 in test [1] was found to be 30 nM; in test [2] it was 3.1 nM. For the compound `C[C@H](Nc1ncc2c(-c3ccc4nccn4c3)c[nH]c2n1)C(F)(F)F` [Compound 116, (S)-5-(Imidazo[1,2-a]pyridin-6-yl)-N-(1,1,1-trifluoropropan-2-yl)-7H-pyrrolo [2,3-d]pyrimidin-2-amine], the values for the EC50 in test [1] and in test [2] were 117 nM and 9.6 nM, respectively.

With `CC[C@H](C)Nc1ncc2c(-c3ccc4ncc(F)n4c3)c[nH]c2n1` [Compound 154, (S)—N-(sec-Butyl)-5-(3-fluoroimidazo[1,2-a]pyridin-6-yl)-7H-pyrrolo[2,3-d]pyrimidin-2-amine], the values for the EC50 in test [1] and in test [2] were 476 nM and 25.9 nM, respectively. On to `CC(C)(F)CNc1ncc2c(-c3ccc4ncc(F)n4c3)c[nH]c2n1` [Compound 155, N-(2-Fluoro-2-methylpropyl)-5-(3-fluoroimidazo[1,2-a]pyridin-6-yl)-7H-pyrrolo[2,3-d]pyrimidin-2-amine], for which the EC50 in test [1] was found to be 227 nM; in test [2] it was 11.7 nM. For `COC[C@H](C)Nc1ncc2c(-c3ccc4ncc(F)n4c3)c[nH]c2n1` [Compound 161, (S)-5-(3-Fluoroimidazo[1,2-a]pyridin-6-yl)-N-(1-methoxypropan-2-yl)-7H-pyrrolo[2,3-d]pyrimidin-2-amine], the EC50 in test [1] was determined as 361 nM; in test [2] it was 26.5 nM. Regarding `COc1nc(CC(C)C)nc2[nH]cc(-c3cc(F)c4nccn4c3)c12` [Compound 187, 5-(8-Fluoroimidazo[1,2-a]pyridin-6-yl)-2-isobutyl-4-methoxy-7H-pyrrolo [2,3-d]pyrimidine], the results for the EC50 in test [1] and in test [2] were 765 nM and 20.3 nM, respectively. For `Fc1cc(-c2c[nH]c3nc(C4CC4)ncc23)cn2ccnc12` [Compound 189, 2-Cyclopropyl-5-(8-fluoroimidazo[1,2-a]pyridin-6-yl)-7H-pyrrolo[2,3-d]pyrimidine], in that order: 1660 nM and 24.2 nM. For the compound `CC[C@H](C)Nc1ncc2c(-c3cc(F)c4nccn4c3)c[nH]c2n1` [Compound 198, (S)—N-(sec-Butyl)-5-(8-fluoroimidazo[1,2-a]pyridin-6-yl)-7H-pyrrolo[2,3-d]pyrimidin-2-amine], the EC50 in test [1] was determined as 351 nM; in test [2] it was 19.5 nM. As for `CC(C)(F)CNc1ncc2c(-c3cc(F)c4nccn4c3)c[nH]c2n1` [Compound 199, N-(2-Fluoro-2-methylpropyl)-5-(8-fluoroimidazo[1,2-a]pyridin-6-yl)-7H-pyrrolo[2,3-d]pyrimidin-2-amine], the EC50 in test [1] came out at 49 nM; in test [2], 15.5 nM. On to `C[C@]1(O)CC[C@@H](Nc2ncc3c(-c4ccn5nccc5n4)c[nH]c3n2)CC1` [Compound 3426, (1s,4s)-1-Methyl-4-((5-(pyrazolo[1,5-a]pyrimidin-5-yl)-7H-pyrrolo[2,3-d]pyrimidin-2-yl)amino)cyclohexan-1-ol], for which the EC50 in test [2] worked out at 3.2 nM. As to `c1cc2nc(-c3c[nH]c4nc(NC5CCC6(CC5)COC6)ncc34)ccn2n1` [Compound 3435, 5-(Pyrazolo[1,5-a]pyrimidin-5-yl)-N-(2-oxaspiro[3.5]nonan-7-yl)-7H-pyrrolo[2,3-d]pyrimidin-2-amine], the EC50 in test [2] was found to be 2.3 nM. For `CNc1nc(N[C@H]2CC[C@](C)(O)CC2)nc2[nH]cc(-c3ccn4nccc4n3)c12` [Compound 3454, trans-1-methyl-4-((4-(methylamino)-5-(pyrazolo[1,5-a]pyrimidin-5-yl)-7H-pyrrolo[2,3-d]pyrimidin-2-yl)amino)cyclohexan-1-ol], in test [2], the EC50 was found to be 3.4 nM. On to `CNc1nc(N2CC3(CO)CCC2CC3)nc2[nH]cc(-c3ccn4nccc4n3)c12` [Compound 3459, (2-(4-(methylamino)-5-(pyrazolo[1,5-a]pyrimidin-5-yl)-7H-pyrrolo[2,3-d]pyrimidin-2-yl)-2-azabicyclo[2.2.2]octan-4-yl)methanol], for which the EC50 in test [2] was 210 nM.

Regarding `CNc1nc(NC2CCC3(CC2)COC3)nc2[nH]cc(-c3ccn4nccc4n3)c12` [Compound 3461, N^4-Methyl-5-(pyrazolo[1,5-a]pyrimidin-5-yl)-N^2-(2-oxaspiro[3.5]nonan-7-yl)-7H-pyrrolo[2,3-d]pyrimidine-2,4-diamine], the EC50 in test [2] came out at 1.9 nM. Still for that read-out and setting: in the case of `COc1nc(N[C@H]2CC[C@@H](OC)CC2)nc2[nH]cc(-c3ccc4nccnc4c3)c12` [Compound 3575, 4-Methoxy-N-(cis-4-methoxycyclohexyl)-5-(quinoxalin-6-yl)-7H-pyrrolo[2,3-d]pyrimidin-2-amine] it was 0.7 nM; in that of `COc1nc(NC2CCC3(CC2)COC3)nc2[nH]cc(-c3ccc4nccnc4c3)c12` [Compound 3590, 4-Methoxy-5-(quinoxalin-6-yl)-N-(2-oxaspiro[3.5]nonan-7-yl)-7H-pyrrolo[2,3-d]pyrimidin-2-amine], 1.6 nM; in that of `Cn1nnc2ccc(-c3c[nH]c4nc(N[C@H]5CC[C@@](C)(O)CC5)ncc34)cc21` [Compound 3643, (1s,4s)-1-Methyl-4-((5-(1-methyl-1H-benzo[d][1,2,3]triazol-6-yl)-7H-pyrrolo[2,3-d]pyrimidin-2-yl)amino)cyclohexan-1-ol], 0.7 nM. Regarding “N-(4,4-Difluorocyclohexyl)-4-methoxy-5-(pyrazolo[1,5-a]pyrimidin-5-yl)-7H-pyrrolo[2,3-d]pyrimidin-2-amine [Compound 2223]”, the EC50 in test [2] came out at 9.4 nM. On the same count and under the same terms, to “N-(cis-3-Methoxycyclobutyl)-5-(1-methyl-1H-benzo[d][1,2,3]triazol-6-yl)-7H-pyrrolo[2,3-d]pyrimidin-2-amine [Compound 2051]” belongs 7.8 nM.

In the case of “N-(cis-4-(Methoxy-d3)cyclohexyl)-5-(pyrazolo[1,5-a]pyrimidin-5-yl)-7H-pyrrolo[2,3-d]pyrimidin-2-amine [Compound 2221]”, the EC50 in test [2] turned out to be 3.6 nM. On the same count and under the same terms, in the case of “cis-4-((4-Ethoxy-5-(pyrazolo[1,5-a]pyrimidin-5-yl)-7H-pyrrolo[2,3-d]pyrimidin-2-yl)amino)cyclohexan-1-ol [Compound 2225]” it was 15.4 nM.
